Columns and labels:
PDE (Peak III) = assay: Inhibition of phosphodiesterases, PDE (Peak III) enzyme assay; format: biochemical; details: PDE (Peak III) from cat heart, 1 µM cyclic AMP
Method: Sepharose is a registered trademark of Pharmacia Fine Chemicals Inc. The high-speed supernatant from a cat heart homogenate (2 g tissue in 20 ml 20 mM PiPES - (Piperazine-N-N'-bis[2-ethanesulfonic acid]), 50 mM Na acetate, pH 6.5) was applied to a 15 ^x 1.5 cm column of DEAE-Sepharose equilibrated with the homogenisation buffer. The PDE activities were eluted with a gradient of 0.05-1 M Na acetate in 20 mM PIPES.
The enzyme was assayed by incubation at 37° for 4-30 min in 50 mM Tris, 5 mM MgCl2, pH 7.5 with [3-H] cyclic nucleotide (4 ^x 10^5 disintegrations min-') and [14-C] nucleotide 5' monophosphate (3 ^x 10^3 disintegrations min^-1). The assay was stopped by boiling, and the [3-H] […] The reaction mixture was diluted with 0.5 ml 100 mM HEPES (N-2-Hydroxyethylpiperazine-N'-2-ethanesulfonic acid), 100 mM NaCl, pH 8.5, and applied to the column. The column was extensively washed with the same buffer, and the 5' nucleotide eluted with 6 ml 025 M acetic acid.

anaesthetised cats = assay: Cardiac stimulant activity in vivo (anaesthetised cats); details: anaesthetised cats pretreated with pempidine and propranolol, administered intravenously; for ED50: Felis catus, iv, read-out: ED50 (dose to increase left ventricular dp/dt max by 50%)
ventricular strips = assay: Cardiac stimulant activity in vitro (electrically stimulated ventricular strips); format: cell-based, Guinea pigs; details: Cavia porcellus; guinea pig right ventricle strips, stimulated at 1.0 Hz, Krebs Henseleit solution at 37°C, concentration in the bathing fluid; read-out: EC50 (50% increase in the force of contraction of the ventricular strips)
Method: The compounds of formula (I) and their pharmaceutically acceptable salts are tested for cardiac stimulant activity following a procedure based on that of S.C. Verma and J. H. McNeill (J.Pharm & Exp. Therapeutics, 200, 352-362 (1977)). Guinea pigs (500-700 g) of either sex are sacrificed and the hearts are quickly removed and transferred to a dissecting dish containing oxygenated bathing fluid. While in the bathing medium, the right ventricle is cut into two strips. The strips are each suspended in a 50 ml bath containing Krebs Henseleit solution at 37°C, and the bath is bubbled with 95% oxygen and 5% carbon dioxide. The ventricular strips are electrically stimulated at a frequency of 1.0 Hz, at double the threshold voltage. A resting tension of 1.0 g is applied to the strips and the tension is kept constant by readjustment during an equilibration period of 60 minutes. The bathing fluid is frequently changed during this period. When a steady base line is obtained, a compound under test is added to the bathing fluid and a cumulative concentration response curve is plotted.

| EC50 (ventricular strips) | Compound | IC50 (PDE (Peak III)) | ED50 (anaesthetised cats) | duration of activity (anaesthetised cats) |
| --- | --- | --- | --- | --- |
| – | Cc1[nH]c(=O)c(C#N)cc1-c1ccncc1 (single isomer, unassigned) [Milrinone] | 2200 nM | – | – |
| – | Nc1cc(-c2ccncc2)c[nH]c1=O [Amrinone] | 51800 nM | 5.6 µmol/kg | short duration of activity |
| 14 µM | CC1CC(=O)NN=C1c1ccc(NC2=NC(=O)CN2)cc1 (centres unmarked) [Example 1, 6-[4-(4-Oxo-2-imidazolin-2-ylamino)phenyl]-5-methyl-4,5-dihydro-3(2H)-pyridazinone] | 1840 nM | 0.4 µmol/kg | long duration of activity |
